Here are results for six compounds from PubChem BioAssay (NCI).

Common to all, as to test: growth of human tumour cells (NCI), 48 h
In assay [1] the test system is 786-0 renal.
Assay [2] deals with HOP-18 NSCLC.
Assay [3] has as its system DMS 273 small cell lung.
The test system of assay [4] is XF 498 CNS.
For assay [5], the system named is M19-MEL melanoma.
The subject of assay [6] is SNB-78 CNS.
Assay [7] has as its system SN12K1 renal.
Assay [8] relates to DMS 114 small cell lung.
Assay [9] has as its system LXFL 529 NSCLC.
In assay [10] the test system is RXF-631 renal.

Molecules are shown by their SMILES.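 Interpolation was linear, between the two tested concentrations surrounding the appropriate level; five concentrations were tested over 48 hours in 96-well plates. TGI: total growth inhibition.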 A value given as a limit tells only on which side of the number the result lay.

Turning to `C/C(=N\NC(=S)NCc1ccccc1)c1nc2ncccc2[nH]1`, in assay [1], the TGI was greater than 100 µM.
For the compound `O=C(CCN1CCOCC1)C(=Cc1ccccc1)C(=O)CCN1CCOCC1`, the TGI came to 30.6 µM in assay [2]; 26 µM in assay [3]; 12.8 µM in assay [4]; 7.64 µM in assay [5]; 8.5 µM in assay [6]; 5.68 µM in [7].
With `NCc1cc(O)c(O)c(O)c1`, the TGI in assay [2], in [3], in assay [4], in assay [5], in [6] and in assay [1] was greater than 100 µM in each case. The TGI in [8], in assay [9] and in assay [10] was greater than 100 µM in each case.
`COC(=O)C1=C(C)N2CCOC2CC1c1ccccc1` (stereo not given): the TGI in assay [5], in assay [8] and in assay [9] was greater than 100 µM throughout.
In [1], `CNCCC=C1c2ccccc2CCc2ccccc21` yielded a TGI of 27.7 µM.
On to `CC(=O)NNc1nc(C)c(C(=O)NNC(=O)C(=O)Nc2c(C)cccc2C(C)(C)C)s1`, for which the TGI in [3], in assay [4], in [5], in assay [6] and in assay [9] was greater than 100 µM each time.
